In patent US11197911B2, “Peptidylic inhibitors targeting C9ORF72 hexanucleotide repeat-mediated neurodegeneration” (The Chinese University of Hong Kong, priority 2016, dated 2021):
“Also recorded” adds a separate entry of the source. No end group written: not given here.

How the values were obtained:
UAS-(GGGGCC)36 flies [1] = test: Climbing ability assay; format: in vivo, Drosophila; conditions: elavGS flies, RU486 200 μM plus peptide 50 μM in food, 10, 15, 20 and 25 dpe
Method: Fly climbing ability was analyzed by negative geotaxis.

UAS-(GGGGCC)36 flies [2] = test: External eye assay; format: in vivo, Drosophila; conditions: GMR-Gal4/UAS-(GGGGCC)36 flies; 100 μM feeding; 1 day-old adults
Method: (§1) Flies were raised at 25° C. on cornmeal medium supplemented with dry yeast. For […], third instar larvae were feed with 100 μM of TAT-P3L or TAT-P3LS1 dissolved in 2% sucrose solution for 2 h and then continued to culture in standard fly food. Eye images of 1 day-old adult of UAS-(GGGGCC)3 or UAS-(GGGGCC)36 flies were captured using a SPOT Insight CCD camera (Diagnostic instruments Inc.) on an Olympus SZX-12 stereomicroscope.

nucleophosmin (B23) = test: Immunostaining, nucleolar stress marker B23 localization; format: cell-based; conditions: (GGGGCC)66-expressing SK-N-MC cells; 10 μM; 48 h
Method: (§2) SK-N-MC cells were seeded and grown on glass coverslips at a density of 0.8×10^5 in 24-well plate. Forty eight hours after treatment, cells were fixed with 4% paraformaldehyde followed by three times wash with 1×PBS. Cells were then permeabilized in 0.5% Triton X-100 for 10 min at room temperature followed by three washes with 1×PBS. After washing step, cells were blocked with 5% BSA in 1×PBS for 1 h at room temperature. The NCL (1:500, Abcam) or B23 (1:500, Abcam) antibody was then applied with 5% BSA (1:500) 2 h at room temperature. Once the primary antibody was removed, Cells were washed three times with 1×PBS and incubated with an anti-rabbit Cy3 or an anti-mouse Cy3 secondary antibody (1:400, Jackson Labs) 1 h at room temperature. After washing with 1×PBS, nuclei were counterstained with Hoechst 33342 (1 μg/ml, Thermo Fisher Scientific) prior to mounting coverslips. Images were obtained on an OLYMPUS FV1000 IX81-TIRF confocal microscope. A single focal plan was obtained through the centre of the nucleus. The method of quantification of NCL and B23 nuclear area fold change was described previously^7. In order to quantify both dispersed NCL and dense nucleolar NCL, a threshold setting in ImageJ ranging from 25-100 was used to measure the pixel area of NCL relative to the area of the nucleus outlined by the Hoechst staining. […]

NCL = test: Immunostaining, nucleolar stress marker NCL localization; format: cell-based; conditions: (GGGGCC)66-expressing SK-N-MC cells; 10 μM; 48 h
Method: as §2

UAS-(GGGGCC)36 flies [3] = test: Lifespan assay; format: in vivo, Drosophila; conditions: elavGS flies, RU486 200 μM plus peptide 50 μM in food
UAS-(GGGGCC)3 flies [4] = conditions: 50 μM in food
Method: For lifespan and climbing ability assay, flies of 2dpe were feed with food containing different drug combination including vehicle control (ethanol), Mifepristone (RU486, 200 μM), RU486 (200 μM) plus TAT-P3L (50 μM), and RU486 (200 μM) plus TAT-P3LS1 (50 μM). Mifepristone (RU486, 200 μM) was used to induce transgene expression. For climbing ability assay, 10-15 flies were allocated to each experimental vials (total of 90-100 flies per condition) and monitored every 5 days. Fly climbing ability was analyzed by negative geotaxis. Groups of ∞15 flies were anesthetized and placed in a vertical plastic column. After 1 h recovery, flies were banged to the bottom, and then scored for climbing ability as the percentage of flies remaining at the bottom (<2 cm) at 25 s. Three trials were performed at 3 min intervals in each experiment.

[5] = test system: expanded CAG repeat-mediated nucleolar stress; conditions: polyQ disease; inventors' previous work (ref. 20); cited from earlier work
[6] = test system: (GGGGCC)66-expressing SK-N-MC cells; test: LDH cytotoxicity assay, (GGGGCC)66-induced cell death; format: cell-based; conditions: for suppression of (GGGGCC)66-induced cell death compared with P3L (structure-activity relationship study): 10 μM, single alanine substitution mutants; for effect on (GGGGCC)66-induced cell death (LDH enzyme activity in medium): 0.1, 1, 10 and 20 μM peptide
Method: SK-N-MC cells were kindly provided by Prof. Dobrila D. Rudnicki (Johns Hopkins University, USA). […] Leonard Petrucelli (Mayo Clinic, USA).
For IC50 detection, various amount of TAT-P3L, 0.1, 0.5, 1, 10, 50, 100, 500, 1,000 and 10,000 nM were added to individual culture wells after transfection. Forty eight hours after treatment, LDH enzyme activity in the cell culture medium was measured as described before. Experimental groups were normalized to the untransfected control. After normalization, data were analyzed using the dose response-inhibition curve (nonlinear regression-variable slope) to determine the IC50 value (Prism6 software, GraphPad Software, Inc.).

[7] = test system: GGGGCC RNA foci in (GGGGCC)66-expressing SK-N-MC cells; test: RNA fluorescence in situ hybridization, GGGGCC RNA foci formation; format: cell-based; conditions: 10 μM, 48 h
Method: In situ hybridization was carried out to evaluate the effect of TAT-P3L on GGGGCC RNA foci formation in […]-expressing SK-N-MC cells. In brief, 0.8×10^5 SK-N-MC cells were seeded and grown on glass coverslips in 24-well plate. Ten micromolar of TAT-P3L or TAT-P3LS1 were added immediately after transfection of 1 μg of pAg3-(GGGGCC)2/66 plasmid. After 48 h, cells were fixed with 4% paraformaldehyde for 10 min and permeabilized with 0.5% Triton-X 100 for 5 min at room temperature. Cells were then washed with phosphate buffered saline treated with diethylpyrocarbonate (DEP-CPBS) three times, and hybridized with 40 nM denatured TYE563-labeled LNA probe (5′-TYE563-CCCGGCCCCGGCCCC-3′; SEQ ID NO:13; Exiqon, Inc) in hybridization buffer (50% formamide, 10% dextran sulfate, 2× saline-sodium citrate buffer (SSC), 50 mM sodium phosphate buffer) 6 h at 65° C. After washing once with 0.1% Tween-20/2×SSC for 5 min at room temperature, cell were further washed with 0.1×SSC 3 times at 65° C. for 10 min. Nuclei were counterstained with Hoechst 33342 (1 μg/ml, Thermo Fisher Scientific) prior to mounting coverslips. Images were obtained on an OLYMPUS FV1000 IX81-TIRF confocal microscope.

UAS-(GGGGCC)3 flies [8] = test: Lifespan assay, control flies; format: in vivo, Drosophila; conditions: 50 μM in food
UAS-(GGGGCC)3 flies [9] = test: External eye assay, control flies; format: in vivo, Drosophila; conditions: GMR-Gal4/UAS-(GGGGCC)3 flies; 100 μM feeding
Method: as §1

AEIRLVSKDGKSKGIAYIEFK [P3L]
climbing defect (UAS-(GGGGCC)36 flies [1]): rescued locomotor deficit | eye degeneration (scar formation in eye) (UAS-(GGGGCC)36 flies [2]): significantly suppressed neurodegeneration | subcellular localization of B23 (nucleophosmin (B23)): restored the subcellular localization | subcellular localization of NCL (NCL): restored the subcellular localization | lifespan (in words) (UAS-(GGGGCC)36 flies [3]): extended lifespan | climbing ability of control flies (UAS-(GGGGCC)3 flies [4]): not found to be affecting the climbing ability

P3: peptide DGKSKGIAYIEFK (SEQ ID NO:2), derived from RRM2 of NCL, inventors' previous work (synthetic peptide construct P3)
inhibition of expanded CAG repeat-mediated nucleolar stress and neurodegeneration [5]: specifically inhibited expanded CAG repeat-mediated nucleolar stress

YGRKKRRQRRRTFIKVPQNQNGKSKGYAF [TAT-RRM3-P1]
cytotoxicity elicited by the peptide by itself (LDH) ([6]; when the dose was raised): elicited cytotoxicity

YGRKKRRQRRRGGEDIKSRVEAASILYFIKKK [TAT-P3LS1, reference compound]
RNA foci-like structure formation in control group [7]: no RNA foci-like structure formed

TAT-P3LMT19: TAT-P3L mutant carrying a single alanine substitution; mutant part SEQ ID NO:32 (YGRKKRRQRRRAEIRLVSKDGKSKGIAYIEFA; synthetic peptide construct TAT; synthetic peptide mutant PL3MT19)
suppression of (GGGGCC)66-induced cell death compared with P3L (structure-activity relationship study) ([6]; 48 h): same suppression effect as the P3L peptide

TAT-RRM4-P1: TAT fusion peptide YGRKKRRQRRRRARIVTDRETGSSKGFGFVD (SEQ ID NO: 10), derived from RRM4 of NCL (synthetic peptide construct TAT-RRM4-P1)
effect on (GGGGCC)66-induced cell death (LDH enzyme activity in medium) ([6]; 48 h): did not demonstrate any modifying effect; also recorded: did not alter

YGRKKRRQRRRAEIRLVSKDGKSKGIAYIEFK [TAT-P3L]
IC50 ([6]; 48 h, concentration reducing LDH enzyme activity by 50% vs untreated control, read-out: IC50 in suppressing (GGGGCC)66-induced cell death): 0.104 ± 0.0246 µM | lifespan of control flies (UAS-(GGGGCC)3 flies [8]): did not alter the lifespan | eye defect in control flies (UAS-(GGGGCC)3 flies [9]): did not cause any observable eye defect | RNA foci-like structure formation in control group [7]: no RNA foci-like structure formed

TAT-P3LMT1: TAT-P3L mutant carrying a single alanine substitution; mutant part SEQ ID NO:14 (YGRKKRRQRRRAAIRLVSKDGKSKGIAYIEFK; synthetic peptide construct TAT; synthetic peptide mutant PL3MT1)
suppression of (GGGGCC)66-induced cell death compared with P3L (structure-activity relationship study) ([6]; 48 h): same suppression effect as the P3L peptide

TAT-RRM1-P1: TAT fusion peptide YGRKKRRQRRRTGTNRKFGYVD (SEQ ID NO: 7), derived from RRM1 of NCL (synthetic peptide construct TAT-RRM1-P1)
effect on (GGGGCC)66-induced cell death (LDH enzyme activity in medium) ([6]; 48 h): did not demonstrate any modifying effect; also recorded: didn't alter
